pIC50: −log10 of the molar value. Counter-ions that a name gives are not always drawn. A value given as a limit tells only on which side of the number the result lay.

The record followed here is patent publication US10526287B2, “LSD1 inhibitors and uses thereof” (Constellation Pharmaceuticals, Inc., priority 2015, dated 2020).

The target in the first assay is LSD1 (Homo sapiens, UniProt O60341). As to the kind of experiment: Biochemical assay for LSD1 activity (LSD1 demethylase TR-FRET). The following applies: Table 5; biotinylated H3K4me1 peptide, 50 minutes at room temperature, TR-FRET; read-out: LSD1_Pep_TR-FRET_1.0 (IC50 T50).
Turning to `F/C(=C\c1ccccc1)C1CC1NCC1CCNCC1` (racemic) [Compound 108, Racemic 2-((Z)-1-fluoro-2-phenylvinyl)-N-(piperidin-4-ylmethyl)cyclopropanamine Dihydrochloride], the pIC50 is 6.00 to 7.00.

The assay is the same for the next values; noted with them: Table 6; biotinylated H3K4me1 peptide, 50 minutes at room temperature, TR-FRET; read-out: LSD1_Pep_TR-FRET_1.0 (IC50 T50).
For the compound `CC/C(=C\c1ccccc1)[C@@H]1C[C@H]1NCC1CCN(Cc2ccc(C(=O)OC(C)(C)C)cc2)CC1` (racemic) [Compound 127], the pIC50 was 6.00 to 7.00.

Consider `CC/C(=C\c1ccccc1)[C@@H]1C[C@H]1NC1CCN(Cc2ccc(C(=O)O)cc2)CC1` (racemic) [Compound 128, 4-((4-(((trans)-2-((E)-1-phenylbut-1-en-2-yl)cyclopropyl)amino)piperidin-1-yl)methyl)benzoic acid bis-trifluoroacetic acid salt], for which the pIC50 is greater than 7.00.

For `C/C(=C\c1ccccc1)[C@@H]1C[C@H]1NC1CCN(Cc2ccc[nH]c2=O)CC1` (racemic) [Compound 134, 3-((4-(((trans)-2-((E)-1-phenylprop-1-en-2-yl)cyclopropyl)amino)piperidin-1-yl)methyl)pyridin-2(1H)-one bis(2,2,2-trifluoroacetate)], the pIC50 was greater than 7.00. Still for that read-out and setting: the result for `C/C(=C\c1ccccc1)[C@@H]1C[C@H]1NCC1CCN(CCC#N)CC1` (racemic) [Compound 135, 3-(4-((((trans)-2-((E)-1-phenylprop-1-en-2-yl)cyclopropyl)amino)methyl)piperidin-1-yl)propanenitrile dihydrochloride] reads greater than 7.00; that for `CNC(=O)c1ccc(CN2CCC(N[C@@H]3C[C@H]3/C(C)=C/c3ccccc3)CC2)cc1` (racemic) [Compound 136, N-methyl-4-((4-(((trans)-2-((E)-1-phenylprop-1-en-2-yl)cyclopropyl)amino)piperidin-1-yl)methyl)benzamide dihydrochloride], greater than 7.00; that for `C/C(=C\c1ccccc1)[C@@H]1C[C@H]1NC1CCN(Cc2ccc(C(N)=O)cc2)CC1` (racemic) [Compound 137, 4-((4-(((trans)-2-((E)-1-phenylprop-1-en-2-yl)cyclopropyl)amino)piperidin-1-yl)methyl)benzamide dihydrochloride], greater than 7.00. For the compound `CC/C(=C\c1ccccc1)[C@@H]1C[C@H]1NCC1CCN(Cc2ccc(C(=O)O)cc2)CC1` (racemic) [Compound 163, 4-((4-((((trans)-2-((E)-1-phenylbut-1-en-2-yl)cyclopropyl)amino)methyl)piperidin-1-yl)methyl)benzoic acid bis trifluoroacetic acid salt], the pIC50 was greater than 7.00. Same read-out and setting: in the case of `C/C(=C\c1ccccc1)[C@@H]1C[C@H]1N[C@H]1CC[C@H](NCCCC(=O)O)CC1` (racemic) [Compound 164, 4-(((trans)-4-(((trans)-2-((E)-1-phenylprop-1-en-2-yl)cyclopropyl)amino)cyclohexyl)amino)butanoic Acid bis(trifluoroacetic Acid) Salt] it was greater than 7.00.

With `C/C(=C\c1ccccc1)[C@@H]1C[C@H]1N[C@H]1CC[C@@H](NCCCC(=O)O)CC1` (racemic) [Compound 165, 4-(((cis)-4-(((trans)-2-((E)-1-phenylprop-1-en-2-yl)cyclopropyl)amino)cyclohexyl)amino)butanoic Acid bis(trifluoroacetic Acid) Salt], the pIC50 is greater than 7.00. On to `CC/C(=C\c1ccccc1)[C@@H]1C[C@H]1N[C@H]1CC[C@@H](N)CC1` (racemic) [Compound 168, (cis)-N^1-((trans)-2-((E)-1-phenylbut-1-en-2-yl)cyclopropyl)cyclohexane-1,4-diamine Dihydrochloride], for which the negative-log IC50 (pIC50) was greater than 7.00.

Regarding `CC/C(=C\c1ccccc1)[C@@H]1C[C@H]1N[C@H]1CC[C@H](N)CC1` (racemic) [Compound 169, (trans)-N^1-((trans)-2-((E)-1-phenylbut-1-en-2-yl)cyclopropyl)cyclohexane-1,4-diamine Dihydrochloride], the pIC50 was greater than 7.00. On the same count and under the same terms, in the case of `C/C(=C\c1ccc(-c2cnn(C)c2)cc1)[C@@H]1C[C@H]1NC1CCNCC1` (racemic) [Compound 175] it was greater than 7.00.
